In patent publication US10519154B2, “7-substituted 1-pyridyl-naphthyridine-3-carboxylic acid amides and use thereof” (Bayer Pharma Aktiengesellschaft, priority 2016, dated 2019):

Experiments:
human M2 receptor [1] = molecular target: T1, human M2 receptor (Homo sapiens, UniProt P08172); assay: Functional M2-GIRK1/4 activation test: positive cooperativity (alpha factor); conditions: shift of acetylcholine dose-response curve (Allosteric EC50 shift); CHO-DUKX-M2-GIRK cells
T1 sequence (P08172 1-466): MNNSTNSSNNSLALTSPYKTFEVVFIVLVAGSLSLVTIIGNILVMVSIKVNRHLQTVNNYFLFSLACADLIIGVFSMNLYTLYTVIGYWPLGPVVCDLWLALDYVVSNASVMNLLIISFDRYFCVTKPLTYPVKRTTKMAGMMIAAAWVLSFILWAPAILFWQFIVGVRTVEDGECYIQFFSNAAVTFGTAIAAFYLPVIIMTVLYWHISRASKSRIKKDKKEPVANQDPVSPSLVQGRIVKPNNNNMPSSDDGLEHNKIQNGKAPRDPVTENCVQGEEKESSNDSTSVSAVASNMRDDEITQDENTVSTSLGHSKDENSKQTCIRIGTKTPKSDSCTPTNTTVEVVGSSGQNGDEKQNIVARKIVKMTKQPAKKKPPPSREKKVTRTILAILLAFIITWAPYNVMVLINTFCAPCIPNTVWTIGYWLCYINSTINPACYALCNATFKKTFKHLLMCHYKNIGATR
From the text: The binding of orthosteric agonists (endogenous ligand: acetylcholine) to the M2 receptor leads to receptor activation or a change in conformation of the receptor in the manner of a shift in equilibrium in favor of the active receptor conformation.
The agonist-induced change in conformation of the M2 receptor results in a Gαi protein activation. […] Under physiological conditions, the result is then a selective efflux of potassium from the cell along the electrochemical gradient. […] The extent of hyperpolarization can therefore be regarded as a measure of the activation of the M2 receptor.
The test cell used is a recombinant CHO-DUKX cell line which has been stably transfected with cDNA coding for the human M2 receptor and with cDNA coding for both GIRK1/4 subunits (CHO-DUKX-M2-GIRK). The transmembrane potential, or the relative changes in the transmembrane potential as a function of substance addition or M2 activation, is determined by means of a voltage-sensitive dye (FLIPR Membrane Potential Assay Kit Blue, Molecular Devices #R8034) and the measurement of cell fluorescence using a proprietary fluorescence imaging instrument.
In accordance with the desired test concentrations, the substances were pre-diluted in loading buffer (see above).
The sowing medium consisted of MEM alpha medium (supplemented with 5% FCS, 2% Glutamax, no genticin).
For the particular measurement, the medium was removed and the cells were laden with the voltage-sensitive dye for at least 6 min at room temperature (30 μl of loading buffer per 384-well). This was followed, in a first measurement, by the determination of the resting transmembrane potential for a period of 5 sec in 1 sec increments. Thereafter, 10 μl in each case of the test substances diluted in loading buffer are added, followed by a second measurement to determine the transmembrane potential for a period of 50 sec in 1 sec increments.
Finally, the cells are admixed with 10 μl of agonist solution (acetylcholine dissolved in loading buffer). In contrast to the EC50 determination of the test substances (see B-1.1), however, this is not done using one acetylcholine concentration; instead, every concentration of the test substance is combined with an acetylcholine 8-point dose-response curve. […] The M2-mediated GIRK1/4 activation or hyperpolarization is then monitored in a third measurement over a period of 60 sec in 1 sec increments. The shift in the acetylcholine dose-response curve in the presence of increasing concentrations of the test substance is analyzed and quantified by means of GraphPad PRISM (Allosteric EC50 shift). […] Positive cooperativity is the hallmark of a positive allosteric modulator. […] The greater the magnitude of the cc value, the greater the extent of cooperativity between orthosteric and allosteric.

human M2 receptor [2] = molecular target: T1, human M2 receptor; assay: Functional M2-GIRK1/4 activation test: allosteric potency (EC50) and efficiency; conditions: for EC50: Receptor activity EC50, CHO-DUKX-M2-GIRK cells, acetylcholine at EC20, in some cases mean of two or more determinations; for Emax: read-out: Efficiency, boosting of the acetylcholine effect at EC20 acetylcholine concentration

| Structure (SMILES) | Cooperativity (alpha factor) (human M2 receptor [1]) | EC50 (human M2 receptor [2]) | Emax (human M2 receptor [2]; CHO-DUKX-M2-GIRK cells) | Efficiency (human M2 receptor [2]; boosting of the acetylcholine effect at EC20 acetylcholine concentration, CHO-DUKX-M2-GIRK cells) |
| --- | --- | --- | --- | --- |
| CC[C@@H](NC(=O)c1cn(-c2ncccc2F)c2nc(N3C[C@@H](O)CC3=O)ccc2c1=O)C(F)(F)F [Example 140, 1-(3-Fluoropyridin-2-yl)-7-[(4S)-4-hydroxy-2-oxopyrrolidin-1-yl]-4-oxo-N-[(2R)-1,1,1-trifluorobutan-2-yl]-1,4-dihydro-1,8-naphthyridine-3-carboxamide] | 47 | 253 nM | 92% |  |
| O=C(NC(c1ccccc1Cl)C(F)(F)F)c1cn(-c2ncc(F)cc2F)c2nc(N3C[C@@H](O)CC3=O)ccc2c1=O (single isomer, unassigned) [Example 5] | 63 | 31 nM |  | 98.25% |
| O=C(N[C@H](C1CC1)C(F)(F)F)c1cn(-c2ncc(F)cc2F)c2nc(N3C[C@@H](O)CC3=O)ccc2c1=O [Example 138, N-[(1R)-1-Cyclopropyl-2,2,2-trifluoroethyl]-1-(3,5-difluoropyridin-2-yl)-7-[(4S)-4-hydroxy-2-oxopyrrolidin-1-yl]-4-oxo-1,4-dihydro-1,8-naphthyridine-3-carboxamide] | 61 | 70 nM | 98.5% |  |
| CC[C@@H](NC(=O)c1cn(-c2ncc(F)cc2Cl)c2nc(N3C[C@@H](O)CC3=O)ccc2c1=O)C(F)(F)F [Example 20, 1-(3-Chloro-5-fluoropyridin-2-yl)-7-[(4S)-4-hydroxy-2-oxopyrrolidin-1-yl]-4-oxo-N-[(2R)-1,1,1-trifluorobutan-2-yl]-1,4-dihydro-1,8-naphthyridine-3-carboxamide] |  | 330 nM | 87% |  |
| CC[C@H](NC(=O)c1cn(-c2ncc(F)cc2F)c2nc(N3CCCN(CCO)C3=O)ccc2c1=O)C(F)(F)F [Example 120, 1-(3,5-Difluoropyridin-2-yl)-7-[3-(2-hydroxyethyl)-2-oxotetrahydropyrimidin-1(2H)-yl]-4-oxo-N-[(2S)-1,1,1-trifluorobutan-2-yl]-1,4-dihydro-1,8-naphthyridine-3-carboxamide] |  | 400 nM | 100% |  |
| CC[C@H](NC(=O)c1cn(-c2ncc(F)cc2F)c2nc(N3CC(O)C(C)C3=O)ccc2c1=O)C(F)(F)F (single isomer, unassigned) [Example 109] |  | 135 nM | 96% |  |
| CC[C@@H](NC(=O)c1cn(-c2ncc(F)cc2Cl)c2nc(N3CC4CC4(O)C3)ccc2c1=O)C(F)(F)F (mixture of isomers) [Example 48, 1-(3-Chloro-5-fluoropyridin-2-yl)-7-[1-hydroxy-3-azabicyclo[3.1.0]hex-3-yl]-4-oxo-N-[(2R)-1,1,1-trifluorobutan-2-yl]-1,4-dihydro-1,8-naphthyridine-3-carboxamide] |  | 74 nM | 92.5% |  |
| CC(C)(C)[C@@H](NC(=O)c1cn(-c2ncc(F)cc2F)c2nc(N3CCCN(CCO)C3=O)ccc2c1=O)C(F)(F)F [Example 127, 1-(3,5-Difluoropyridin-2-yl)-7-[3-(2-hydroxyethyl)-2-oxotetrahydropyrimidin-1(2H)-yl]-4-oxo-N-[(2R)-1,1,1-trifluoro-3,3-dimethylbutan-2-yl]-1,4-dihydro-1,8-naphthyridine-3-carboxamide] |  | 50 nM | 96% |  |
| O=C(NC(c1ccccc1Cl)C(F)(F)F)c1cn(-c2ncc(F)cc2F)c2nc(N3CCNC3=O)ccc2c1=O (single isomer, unassigned) [Example 148, N-[1-(2-Chlorophenyl)-2,2,2-trifluoroethyl]-1-(3,5-difluoropyridin-2-yl)-4-oxo-7-(2-oxoimidazolidin-1-yl)-1,4-dihydro-1,8-naphthyridine-3-carboxamide] |  | 66 nM | 100% |  |
| CC(NC(=O)c1cn(-c2ncc(F)cc2F)c2nc(N3CC(CO)(CO)C3)ccc2c1=O)C(F)(F)C(F)(F)F (single isomer, unassigned) [Example 183, 7-[3,3-Bis(hydroxymethyl)azetidin-1-yl]-1-(3,5-difluoropyridin-2-yl)-4-oxo-N-[3,3,4,4,4-pentafluorobutan-2-yl]-1,4-dihydro-1,8-naphthyridine-3-carboxamide] |  | 53 nM | 100% |  |
